Among the data in BindingDB's records for doi:10.1111/j.1747-0285.2009.00860.x (National University of Singapore, 2009) are IC50 values, retold here.

SMILES strings stand for the structures. pIC50: −log10 of the molar value. A value given as a limit tells only on which side of the number the result lay.

For this assay, the target named is T1, Dihydrofolate reductase (Bos taurus, UniProt P00376).
T1 sequence (P00376 whole entry): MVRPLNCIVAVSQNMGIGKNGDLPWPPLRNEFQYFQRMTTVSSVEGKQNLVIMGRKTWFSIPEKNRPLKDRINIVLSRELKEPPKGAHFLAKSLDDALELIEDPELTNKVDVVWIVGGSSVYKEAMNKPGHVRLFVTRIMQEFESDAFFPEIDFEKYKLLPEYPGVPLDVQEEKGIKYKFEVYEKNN
As to the kind of experiment: Inhibition Assay. From the text:
Inhibition activity using bovine dihydrofolate reductase (DHFR).
By pIC50 is commonly meant the negative decadic logarithm of the IC50, by convention in mol/L. Low readings indicate a large IC50, high ones a small IC50. The compound `NC1=NC2(CCCCC2)N(OCCCOc2ccccc2)C(N)=N1` showed a negative-log IC50 (pIC50) of 8.16.

Turning to `NC1=NC2(CCCC2)N(Cc2ccccc2)C(N)=N1` [6,8,10-Traiazaspiro[4.5]deca-6,8-diene-7,9-diamine, Ia], the pIC50 was under 4.30.

`NC1=NC2(CCCC2)N(OCCCCOc2ccccc2)C(N)=N1` [6,8,10-Traiazaspiro[4.5]deca-6,8-diene-7,9-diamine, Ig] showed a negative-log IC50 (pIC50) of 7.37.

Turning to `NC1=NC2(CCCC2)N(OCCc2ccccc2)C(N)=N1` [6,8,10-Traiazaspiro[4.5]deca-6,8-diene-7,9-diamine, Ic], the negative logarithm of the IC50 (pIC50) was 7.51. The pIC50 values of the last two compounds are within 0.2 log units of each other.

In turn, `NC1=NC2(CCCCC2)N(OCCCCOc2ccccc2)C(N)=N1` [1,3,5-Triazaspiro[5.5]undeca-1,3-diene-2,4-diamine, IIg] had a negative-log IC50 (pIC50) of 6.81.

`CN(CCCON1C(N)=NC(N)=NC12CCCC2)c1ccccc1` [6,8,10-Traiazaspiro[4.5]deca-6,8-diene-7,9-diamine, If]: the pIC50 was 7.83.

`NC1=NC2(CCCC2)N(OCCCc2ccccc2)C(N)=N1` [6,8,10-Traiazaspiro[4.5]deca-6,8-diene-7,9-diamine, Id]: the negative logarithm of the IC50 (pIC50) was 7.70. The pIC50 values of the last two compounds are within 0.2 log units of each other.

With `NC1=NC2(CCCCC2)N(OCCc2ccccc2)C(N)=N1` [1,3,5-Triazaspiro[5.5]undeca-1,3-diene-2,4-diamine, IIc], the negative logarithm of the IC50 (pIC50) was 8.03.

Consider `CN(CCCON1C(N)=NC(N)=NC12CCCCC2)c1ccccc1` [1,3,5-Triazaspiro[5.5]undeca-1,3-diene-2,4-diamine, IIf], for which the pIC50 is 7.38.

`NC1=NC2(CCCCC2)N(OCCCc2ccccc2)C(N)=N1` [1,3,5-Triazaspiro[5.5]undeca-1,3-diene-2,4-diamine, IId]: the pIC50 was 7.50.

Compound `NC1=NC2(CCCCC2)N(OCc2ccccc2)C(N)=N1` [1,3,5-Triazaspiro[5.5]undeca-1,3-diene-2,4-diamine, IIb] showed a pIC50 of 5.75.

The compound `NC1=NC2(CCCCC2)N(Cc2ccccc2)C(N)=N1` [1,3,5-Triazaspiro[5.5]undeca-1,3-diene-2,4-diamine, IIa] had a negative logarithm of the IC50 (pIC50) of under 4.30.

In turn, `NC1=NC2(CCCC2)N(OCCCOc2ccccc2)C(N)=N1` showed a pIC50 of 8.64.
